This is an account of results in patent publication US20220046919A1, “SYNERGISTIC INSECTICIDAL COMBINATIONS” (UPL LTD, priority 2019, published 2022).

“Also recorded” adds a separate entry of the source.

The subject of data set [1] is Okra (Abelmoschus esculentum L). Kind of data set: Phytotoxicity / crop safety on Okra in the field trial. The data set is classed as in vivo. Particulars: both application rates, 4 ml & 5 ml/lit of water. The method, then: (§1) Field trials were conducted to study the effect of the combination of Denatonium benzoate with insecticides. The following three combinations were tested on the control of Jassids species Amrasca bigutula bigutula in the crop of infected Okra (Abelmoschus esculentum L) over the use of insecticides alone. • Denatonium benzoate+Flonicamid • Denatonium benzoate+Thiamethoxam • Denatonium benzoate+Imidacloprid
(§2) Both phytotoxicity and percentage control of the Jassids was measured.
The safety of Denatonium Benzoate (DB) combinations according to present invention on Okra was evaluated. It is observed that the DB combinations according to the present invention are safe and no Phytotoxicity is observed.

For data set [2] the following is noted: cited from earlier work.
For data set [3], the system named is Amrasca bigutula bigutula. The experiment in a line: Field trial: control of Jassids in infected Okra. As to conditions: Denatonium Benzoate alone. It counts as in vivo. The procedure: as §1, §2
T-1, T-2 and T-3 are the treatment with insecticidal combinations according to the present invention; T-4, T-5 and T-6 are the treatment with insecticides alone; T-7 and T-8 are the treatment with Denatonium benzoate (DB) liquid solutions alone and T-9 is the control.
Bio-efficacy of insecticidal combinations of the present invention against Jassids in infected Okra were evaluated. The percentage control of Jassids was measured. Efficacy was evaluated as: Excellent 91-100%, Very good 81-90%, Good 71-80%, Moderate 51-70%, Poor<50%.

The conditions of data set [4]: in vivo; cited from earlier work.

Consider `CC[N+](CC)(CC(=O)Nc1c(C)cccc1C)Cc1ccccc1.O=C([O-])c1ccccc1` [Denatonium benzoate, phenylmethyl-[2-[(2,6-dimethylphenyl)amino]-2-oxoethyl]-diethylammonium benzoate], for which the “Selectivity: crop safety on okra” value in data set [1] was “Good crop safety”. The “concentration with generally recognized bitter taste” value in data set [2] (in vivo) was 50 ppb. The “concentration detected by the average person” value in data set [2] (taste detection) was 10 ppb. Also, in data set [3], the “control of Jassids / insecticidal activity, in words” value is on record as “no significant control of Jassids; also recorded: does not exhibit any insecticidal activity”. For the same molecule, the “human safety in clinical trials” value in data set [4] is “extremely human safe”.
